{"source": "paper PMC7504387", "about": "“Antimicrobial and Amyloidogenic Activity of Peptides Synthesized on the Basis of the Ribosomal S1 Protein from Thermus Thermophilus” (International Journal of Molecular Sciences, 2020)", "key": {"[1]": {"experiment": "Thioflavine T fluorescence assay of peptide aggregation", "assay_type": "physicochemical", "conditions": "ThT 0.2 mM, 37 °C; for amyloids in peptide preparation according to ThT fluorescence: peptide alone; for ThT fluorescence intensity, final: peptide alone 0.2 mM, 1% DMSO, end of kinetics (time axis to 80 min)", "protocol": "(§1) Fibrils growth was monitored by thioflavine T (ThT) (Sigma-Aldrich, St. Louis, MO, USA) fluorescence. The kinetics of aggregation of peptides was studied using the method of fluorescence spectroscopy. Each kinetics graph was plotted based on the average of several results measured at different time intervals. To facilitate dissolution, all the samples of peptides were pre-dissolved in 100% DMSO, then buffers 50 mM Tris-HCl, pH 7.5, 150 mM NaCl or 20% acetic acid pH 2.0, 150 mM NaCl were added (1% final concentration DMSO) and filtered through […] membranes to remove small aggregates. ThT is the most commonly used fluorescent dye for the following amyloid formation semi-quantitatively in vitro. Free ThT has excitation and emission maxima at ∼350 and ∼450 nm, respectively (after binding to fibrils, the excitation and emission λmax change to ∼450 and ∼482–485 nm, respectively). A stock solution of ThT was prepared at a concentration of 20 mM in 50 mM Tris-HCl, pH 7.5, 150 mM NaCl or 20% acetic acid pH 2.0, 150 mM NaCl, respectively and stored at 4 °C protected from light. The final concentration of ThT was 0.2 mM, and each peptide was 0.2 mM. ThT was present in the sample during the fibril formation reaction. Measurements of ThT fluorescence were performed on a Cary Eclipse fluorescence spectrophotometer (Varian, Mulgrave, Australia) in quartz cells 3 × 3 mm at 37 °C."}, "T. thermophilus cells": {"system": "T. thermophilus cells", "experiment": "Electron microscopy of intact and peptide-treated T. thermophilus cells", "assay_type": "cell-based", "protocol": "Along with the spectrophotometric method for determining the antimicrobial activity of peptides, the viability of cells was evaluated using electron microscopy. […] At the given peptide concentration, cells with a typical morphology and flagella were often found. Many protein aggregates were also observed. The absence of an antimicrobial effect with an increase in the concentration of the peptide to 1000 μg/mL, consistent with the spectrophotometry data of the antimicrobial activity of peptides (Figure 3).\n(§2) The presence of amyloid fibrils in the test samples was monitored by transmission electron microscopy (TEM). End-point solutions of peptides were collected and the samples were dissolved in the same solution to 0.2 mg/mL before studying with electron microscopy. A formvar-coated copper grid 400 mesh (Electron Microscopy Sciences, Hatfield, PA, USA) was placed on a 10 μL sample. After 5 min absorption, the grids with the preparation were negatively stained for 1.5–2.0 min with 1% (weight/volume) aqueous solution of uranyl acetate. The excess of the staining agent was removed with filter paper. The preparations were analyzed using a JEM-100C (Jeol, Tokyo, Japan) transmission electron microscope at the accelerating voltage of 80 kV. Images were recorded on the Kodak electron image film (SO-163) at nominal magnification of 40,000–60,000."}, "[2]": {"experiment": "Transmission electron microscopy of peptide preparations", "assay_type": "physicochemical", "conditions": "peptide alone", "protocol": "as §2"}, "[3]": {"system": "T. thermophilus cell culture", "assay_type": "cell-based", "conditions": "for minimal inhibitory concentration (MIC): optical absorption at 600 nm after 24 h incubation, 5 repeats for R23I, 2 for R23T and V10I", "protocol": "UV-Vis spectra were recorded using a spectrophotometr SF-102 (Akvilon, Moscow, Russia). At the end of the incubation, the density of the medium was estimated by spectrophotometry in a cuvette 10 mm with a total volume of 100 μL. The cuvettes were filled with the peptide water solutions and spectra were collected, using a wavelength from 600 nm. Biological activity of peptides was evaluated by their minimum concentration, which that may inhibit the growth of T. thermophilus bacteria culture. Biological activity of peptides was counted by using the following equation: (1) E=1−A (sample with peptide)/A (sample without peptide), where E is a biological activity of peptides, A is an optical absorption after 24 h incubation with and without peptide.\nTo construct a dose-effect curve and estimate the quantitative parameters of the curves, the statistical environment R and the drc package were used. The choice of model for describing the functional dependence was determined by several parameters: the logarithm of the maximum value of the likelihood function (logLik), the Akaike information criterion (IC), and the residual variance (Res var).\nThe algorithm for evaluating antimicrobial activity includes the study of this process and the dose–response relationship. The reaction of a biological object determines a quantitative assessment of the antimicrobial effect, depending not only on the concentration of the peptide, but also on the time of its action. Almost any impact begins with a certain threshold. An important final result of the experiment is the assessment of this threshold—the minimum inhibitory concentration (MIC) at which peptide influence is observed."}, "[4]": {"system": "ribosomal S1 protein from T. thermophilus", "experiment": "Electron microscopy, coaggregation of peptide with S1 protein", "protocol": "as §2"}, "[5]": {"system": "ribosomal S1 protein from T. thermophilus", "experiment": "Thioflavine T fluorescence, coaggregation of peptide with S1 protein", "conditions": "S1:peptide ratios 1:1 and/or 1:5", "protocol": "as §1"}, "[6]": {"conditions": "peptide:S1 protein ratio 5:1 (S1:peptide = 1:5)"}}, "note": "“Also recorded” adds a separate entry of the source. Where a SMILES comes first, the peptide text is derived from it. Where no end group is shown, it is not given here. [ ]: non-standard residue; d: D form. Sar = CNCC(=O)O"}
{"molecule": "CC(C)[C@H](NC(=O)CNC(=O)CN(C)C(=O)CNC(=O)CNC(=O)[C@H](CCCNC(=N)N)NC(=O)[C@H](CCCNC(=N)N)NC(=O)[C@H](CCCNC(=N)N)NC(=O)[C@H](CCC(N)=O)NC(=O)[C@H](CCCNC(=N)N)NC(=O)[C@H](CCCNC(=N)N)NC(=O)[C@H](CCCCN)NC(=O)[C@H](CCCCN)NC(=O)[C@@H](N)CCCNC(=N)N)C(=O)N[C@H](C(=O)N[C@@H](CCC(=O)O)C(=O)NCC(=O)N[C@H](C(=O)N[C@H](C(=O)N[C@H](C(=O)N[C@@H](CCC(=O)O)C(=O)N[C@H](C(=O)N[C@H](C(=O)O)[C@@H](C)O)C(C)C)C(C)C)C(C)C)[C@@H](C)O)C(C)C", "note": "[R23T] (HELM PEPTIDE1{R.K.K.R.R.Q.R.R.R.G.G.[Sar].G.V.V.E.G.T.V.V.E.V.T}$$$$V2.0; N-terminus and C-terminus assumed)", "values": [{"measurement": "amyloids in peptide preparation according to ThT fluorescence", "setting": "[1]", "value": "absence of R23T amyloids"}, {"measurement": "cell morphology by electron microscopy", "setting": "T. thermophilus cells; peptide 100 μg/mL", "value": "did not differ from the control"}, {"measurement": "cell morphology by electron microscopy", "setting": "T. thermophilus cells; peptide 500 μg/mL", "value": "cells were often damaged"}, {"measurement": "fibril/aggregate formation by electron microscopy", "setting": "[2]; 5 h incubation at 37 °C, 50 mM TrisHCl pH 7.5, 150 mM NaCl", "value": "did not form fibrils, but the aggregates were observed"}, {"measurement": "minimal inhibitory concentration (MIC)", "setting": "[3]; T. thermophilus culture", "value": 500, "unit": "µg/mL"}, {"measurement": "morphology of peptide/S1 protein mixture by electron microscopy", "setting": "[4]; peptide:S1 protein ratio 1:1", "value": "aggregates are observed; also recorded: aggregates of different sizes"}, {"measurement": "morphology of peptide/S1 protein mixture by electron microscopy", "setting": "[4]; [6]", "value": "aggregates of different morphology (type 1 and type 2), fibrils and thin films are formed; also recorded: both the fibrils and films were formed"}]}
{"molecule": "NC[C@H]1O[C@H](O[C@H]2[C@H](O)[C@@H](O[C@H]3O[C@H](CO)[C@@H](O)[C@H](N)[C@H]3O)[C@H](N)C[C@@H]2N)[C@H](O)[C@@H](O)[C@@H]1O", "note": "[kanamycin, reference compound]", "values": [{"measurement": "change of optical density of T. thermophilus culture over time", "setting": "[3]; 50 μg/mL in medium, OD 600 nm versus sampling time, DMSO control reached 0.8", "value": "no increase in the optical density"}, {"measurement": "effectiveness E = 1 − A(sample with peptide)/A(sample without peptide)", "setting": "[3]; T. thermophilus culture, OD 600 nm, 24 h, maximum observed, probably a limitation of the method", "value": "≤ 0.8"}, {"measurement": "concentration close to 50% of the inhibition of cell culture growth", "setting": "[3]; T. thermophilus culture, dose-response curve, log-logistic model", "value": "~10", "unit": "µg/mL"}]}
{"molecule": "DFGVFVNLG [D9G, amyloidogenic peptide … based on the ribosomal S1 protein from T. thermophilus]", "values": [{"measurement": "biological activity (growth inhibition) in the range of studied concentrations", "setting": "[3]; T. thermophilus culture, OD 600 nm, 24 h, single repeat", "value": "did not show biological activity"}]}
{"molecule": "GlyGlySarGlyVTDFGVFVEI [G14I, elongated peptide GlyGlySarGly[…]]", "values": [{"measurement": "ThT fluorescence intensity, final", "setting": "[1]", "value": 80, "unit": "a.u."}, {"measurement": "amyloids in peptide preparation according to ThT fluorescence", "setting": "[1]", "value": "presence of amyloids"}]}
{"molecule": "GlyGlySarGlyVVEGTVVEVT (GG[Sar]GVVEGTVVEVT) [G14T, elongated peptide GlyGlySarGly…]", "values": [{"measurement": "ThT fluorescence intensity, final", "setting": "[1]", "value": 4, "unit": "a.u."}, {"measurement": "amyloids in peptide preparation according to ThT fluorescence", "setting": "[1]", "value": "presence of amyloids"}, {"measurement": "aggregate/fibril morphology according to electron microscopy", "setting": "[2]; negative staining, TEM", "value": "short dense fibrils"}, {"measurement": "morphology of peptide/S1 protein mixture by electron microscopy", "setting": "[4]; peptide:S1 protein ratio 1:1", "value": "fibrils are not formed"}, {"measurement": "amyloids on joint incubation with S1 protein according to ThT fluorescence", "setting": "[5]", "value": "presence of amyloids, which tend to disaggregate"}]}
{"molecule": "VTDFGVFVEI [V10I]", "values": [{"measurement": "minimal inhibitory concentration (MIC)", "setting": "[3]; T. thermophilus culture", "value": 1000, "unit": "µg/mL"}]}
{"molecule": "VVEGTVVEVT [V10T, unmodified amyloidogenic peptide … based on the ribosomal S1 protein from T. thermophilus]", "values": [{"measurement": "cell morphology by electron microscopy", "setting": "T. thermophilus cells; peptide 100 μg/mL", "value": "had no toxic effect"}, {"measurement": "morphology of peptide/S1 protein mixture by electron microscopy", "setting": "[4]; peptide:S1 protein ratio 1:1", "value": "only aggregates are present"}, {"measurement": "morphology of peptide/S1 protein mixture by electron microscopy", "setting": "[4]; [6]", "value": "both aggregates and fibrils are present; also recorded: led to the formation of fibrils"}, {"measurement": "amyloids on joint incubation with S1 protein according to ThT fluorescence", "setting": "[5]", "value": "presence of amyloids, which tend to disaggregate"}]}
